Test results: the NIST ThermoML archive (doi:10.1021/je900021g)
Numbers after ± are expanded uncertainties.

Details: Crystal; DTA

Normal melting temperature: 188 ± 1 °C
Structure (SMILES): O=C(O)CCC(=O)O [butanedioic acid]
